US20170165247A1, “CRYSTALLINE COMPOUNDS OF DABIGATRAN ETEXILATE” (OLON S.p.A., priority 2014, published 2017)

Assays:
[1] = Kinetic dissolution of tablet in phosphate buffer pH 4.5; format: physicochemical; settings: for Average Conc.: tablet dissolution
Protocol: Kinetic Dissolution Experimental Conditions for Tablet Dissolution Dissolution Medium: […] Temperature: 37±0.5° C. Volume: 80 mL Time: 2 hrs Sample: Tablet (weight 200 mg) Stirring: Paddle 100 rpm Sampling time: 5 min, 15 min, 25 min, 35 min, 45 min, 60 min and 120 min. Repetitions: 2 for each experiment At the time fixed, withdraw 3 mL from each vessel. Reinstate the withdrawn volume. Filter each solution with 0.20 μm filter, discarding the first 1 mL. […] Each withdrawal was analyzed without further dilution. The sample was analyzed using the chromatographic conditions reported herein.

[2] = Thermodynamic solubility test in buffer solution (HPLC); format: physicochemical; settings: buffer pH 4.5, 37° C., 24 hours
Protocol: The solubility tests were performed in a buffer solution at ph 4.5 and compared with the solubility data of dabigatran etexilate mesylate (commercial form).
Thermodynamic Solubility Tests
The sample (approx. 50 mg) was weighted in a vial and left under magnetic stirring (approx. 300 rpm) in approx. 2 mL of buffer solution at 37° C. for 24 hours. The experiments were carried out at pH 4.5 and pH 6.8. The suspensions were filtered with 0.45 μm filter and analyzed by HPLC method previously reported. From the obtained area an opportune dilution of the sample was performed to obtain a value consistent with the Calibration Curve. Every diluted sample was analyzed by HPLC and the results were interpolated by the calibration curve.
Each experiment was replicated twice.

**Q.** Which “Average Conc.” value ([1]; pH 4.5, time 5 min) does the source give for `CCCCCCOC(=O)N=C(N)c1ccc(NCc2nc3cc(C(=O)N(CCC(=O)OCC)c4ccccn4)ccc3n2C)cc1.O=C(O)c1cc(O)c(O)c(O)c1` [Dabigatran/gallate 1/1] here?
**A.** The value was 10.01.

**Q.** What about the “Average Conc.” value ([1]; pH 4.5, time 15 min) of the same compound?
**A.** The value was 28.10.

**Q.** What about the “Average Conc.” value ([1]; pH 4.5, time 25 min) of the same compound?
**A.** The value was 44.94.

**Q.** And the “Average Conc.” value ([1]; pH 4.5, time 35 min)?
**A.** Its value is 62.45.

**Q.** What about the “Average Conc.” value ([1]; pH 4.5, time 45 min) of the same compound?
**A.** The value was 75.18.

**Q.** And the “Average Conc.” value ([1]; pH 4.5, time 60 min)?
**A.** Its value is 90.21.

**Q.** What about the “Average Conc.” value ([1]; pH 4.5, time 120 min) of the same compound?
**A.** Its value is 106.50.

**Q.** With `CCCCCCOC(=O)NC(=N)c1ccc(NCc2nc3cc(C(=O)N(CCC(=O)OCC)c4ccccn4)ccc3n2C)cc1.CS(=O)(=O)O` [Dabigatran/mesylate 1/1] as the compound, how does the “Average Conc.” value ([1]; pH 4.5, time 5 min) read?
**A.** Its value is 6.86.

**Q.** What about the “Average Conc.” value ([1]; pH 4.5, time 15 min) of the same compound?
**A.** The value was 9.09.

**Q.** What about the “Average Conc.” value ([1]; pH 4.5, time 25 min) of the same compound?
**A.** The value was 11.40.

**Q.** What about the “Average Conc.” value ([1]; pH 4.5, time 35 min) of the same compound?
**A.** The value was 13.28.

**Q.** What about the “Average Conc.” value ([1]; pH 4.5, time 45 min) of the same compound?
**A.** The value was 15.96.

**Q.** What about the “Average Conc.” value ([1]; pH 4.5, time 60 min) of the same compound?
**A.** Its value is 18.55.

**Q.** And the “Average Conc.” value ([1]; pH 4.5, time 120 min)?
**A.** Its value is 26.44.

**Q.** Which “Average Conc.” value ([1]; pH 4.5, time 5 min) does the source give for `CCCCCCOC(=O)N=C(N)c1ccc(NCc2nc3cc(C(=O)N(CCC(=O)OCC)c4ccccn4)ccc3n2C)cc1.O=C(O)c1cc(=O)[nH]c(=O)[nH]1` [Dabigatran/orotate 1/1] here?
**A.** Its value is 8.76.

**Q.** What about the “Average Conc.” value ([1]; pH 4.5, time 15 min) of the same compound?
**A.** Its value is 11.06.

**Q.** And the “Average Conc.” value ([1]; pH 4.5, time 25 min)?
**A.** The value was 12.26.

**Q.** What about the “Average Conc.” value ([1]; pH 4.5, time 35 min) of the same compound?
**A.** The value was 13.74.

**Q.** And the “Average Conc.” value ([1]; pH 4.5, time 45 min)?
**A.** The value was 15.52.

**Q.** And the “Average Conc.” value ([1]; pH 4.5, time 60 min)?
**A.** Its value is 17.21.

**Q.** What about the “Average Conc.” value ([1]; pH 4.5, time 120 min) of the same compound?
**A.** Its value is 28.89.

**Q.** With “Dabigatran Etexilate Orotate Anhydrous Form a (Dabigatran/Orotic Acid 1/1 Mol/Mole)” as the compound, how does the “dissolution rate compared with the mesylate salt (in words)” value ([1]; kinetic dissolution, phosphate buffer pH 4.5, 37° C.) read?
**A.** Its value is “comparable”.

**Q.** What about the “dissolution rate, times higher than the mesylate derivative” value ([1]; tablet, phosphate buffer pH 4.5, 37° C., paddle 100 rpm, compared with mesylate) of the same compound?
**A.** The value was “more than 8.7 times”.

**Q.** With Gallate as the compound, how does the Average Conc. [2] read?
**A.** Its Average Conc. is 0.40 µg/mL.
